Results as given in patent US20110160311A1, “Sweetness Enhancers, Compositions Thereof, and Methods for Use” (The Coca-Cola Company, priority 2009, published 2011).
Each block holds one compound with its values, some of them ahead of it.

Legend:
[1] = Sweetness enhancement of glucose, fructose or sucrose at 6% SE in water by additive at its threshold level; assay type: in vivo, human; parameters: key: T: Slight thicker-like sweetness (not intensity factor).; No difference; N(S+): No difference but slightly more sweet (0.5-0.75%); +S: More sweetness intensity (~1.0% SE); ++S: Much more sweetness intensity (~2.0% SE); conditions: room temperature, additive at its Table 1 threshold level; for Sensory result versus FRU 55,000 ppm: fructose at 6% SE in water; for Sensory result versus GLU 99,000 ppm: glucose at 6% SE in water; for Sensory result versus SUC 60,000 ppm: sucrose at 6% SE in water
Protocol: (§1) A first sip (approximately 2.2 mL) of a ca. 20 mL control composition was taken and swallowed. After waiting for a time ranging from 15 to 25 seconds, a second sip of control composition was taken and swallowed, and the sweetness and/or taste of the control composition was noted. After waiting for a time ranging from 15 to 25 seconds, these steps were repeated with a comparative composition. The sweetness and taste differences between the control and the comparative composition were noted. For each tested composition, this cycle was repeated once to confirm the initial findings. All samples were measured at average 23.0° C.±1° C. between samples for consistent comparison and to minimize any effects of temperature on the perceived taste or sweetness of the composition.
(§2) To perform the taste test, three sweetener samples were paired with one additive and taste tested as described above. A three minute break was taken before tasting another three sweetener samples paired with a different additive. Up to 10 additives per day were used to minimize a fatigue factor. Before tasting, at least 1.5 hours elapsed after ingestion of any food, drink or nicotine. The tests were repeated on a different date to validate the initial findings.
The twenty-one entities above were combined in a concentration at the sweetness detection threshold level listed in Table 1, with one of Glucose (GLU), Fructose (FRU), and Sucrose (SUG), each at a fixed SE (Sucrose Equivalents) level of 6%. The sweetness of the compositions was measured as described above at room temperature.

[2] = By-products of 500 ppm REB A after two months of storage in phosphoric acid at RT; assay type: physicochemical; conditions: approximated concentration of by-product of 500 ppm REB A
[3] = Sweetness detection threshold level in water, multi-sip and swallow taste method; assay type: in vivo, human; conditions: for Sweetness Detection Threshold Level: in water at room temperature
Text: As used herein, the terms “sweetness threshold,” “sweetness recognition threshold,” and “sweetness detection threshold” are understood to mean the level at which the lowest known concentration of a certain sweet compound that is perceivable by the human sense of taste and it can vary from person to person. For example, a typical sweetness threshold level for sucrose in water can be 0.5%.
Further for example, the at least one sweetness enhancer to be used can be assayed in water at least 25% lower and at least 25% higher than the sucrose detection level of 0.5% in water to determine the sweetness threshold level.
as §1, §2
The sweetness detection threshold levels for 21 entities were measured by a single assessor in water at room temperature according to the multi-sip and swallow taste method described herein.

[4] = Sweetness enhancement of glucose, fructose or sucrose at 6% SE in water by additive at its threshold level; assay type: in vivo, human; conditions: for Sweetness of the composition after enhancement: from about 6% SE (sucrose control), REB C at 100 ppm, the other compound at 25 ppm
[5] = Sweetness recognition threshold in lemon-lime carbonated beverage at 4° C.; assay type: in vivo, human; conditions: lemon-lime carbonated beverage (citric buffer) at 4° C., average of six subjects
Protocol: Preliminarily, multi-levels of steviol glycoside solution in lemon-lime beverage at 4° C. were prepared by mixing the calculated formulations to obtain 450, 350, 250 and 150 ppm of steviol glycoside solutions. Those solutions were then tasted by six experienced subjects by using the sip-and-spit protocol disclosed herein. The sweetness recognition threshold for rubusoside was determined to be averaged 150 ppm. For sweetness enhancement test of rubusoside in lemon-lime beverage, it was decided to use a 10 percent less of sweetness recognition threshold or 135 ppm (150−10%=135).

[6] = Descriptive sensory analysis of lemon-lime carbonated beverages at 4° C.; assay type: in vivo, human; conditions: 135 ppm rubusoside added to 8% HFSS lemon-lime beverage
Protocol: Three test products were prepare: a control beverage comprising 10.52% High Fructose Starch Syrup (HFSS), a lemon-lime prototype comprising 8% HFSS and 135 ppm rubusoside, and a standard lemon-lime beverage comprising 8% HFSS.
As part of study design, a full sensorial profile was determined using a Complete Block Design (CBD). All products were randomized and balanced. Each assessor evaluated all products sequentially. Each product was evaluated three times by each assessor. Eight minute time breaks between tasting samples. Unsalted cracker, 0.75% saline solution and mineral grade water was used as a mouth rinse and refresher before each sample. Each assessor was served 75 ml of chilled beverage (4° C.+/−1° C.). Table 5 provides the categories and the descriptions of the various attributes identified in Table 4.

[7] = Rubusoside sweetness detection threshold estimation in water, sip-and-spit, 5 subjects; assay type: in vivo, human; conditions: 50 ppm solution in purified water, all 5 subjects
Protocol: Preliminarily, a 1,000 ppm steviol glycoside solution was prepared by dissolution of 20 mg steviol glycoside in 20 mL purified water. An aliquot (10 mL) of this solution was diluted to 20 mL with water to obtain a 500 ppm solution. Additional 1:1 serial dilutions were used to obtain 250, 125, 62.5, 31.2 and 15.6 ppm solutions. Those solutions were then tasted in ascending order of concentration by one experienced subject by using the sip-and-spit protocol disclosed herein. The subject's estimated sweetness detection threshold was determined to be at the lowest concentration at which sweetness was definitely observed.
Thereafter, a 200 ppm solution of rubusoside was prepared by dissolution of 20 mg rubusoside in 200 mL purified water. An aliquot (50 mL) of this solution then was diluted to 100 mL with water to obtain a 100 ppm solution. Additional 1:1 serial dilution steps were used to prepare 50 and 25 ppm solutions. These solutions then were tasted in ascending order of concentration by 5 experienced subjects by the sip-and-spit protocol.

[8] = Rubusoside and 6% sucrose sweetness enhancement test; assay type: in vivo, human; conditions: 50 mg rubusoside in 1 L of 6% sucrose; scale of 6-10 relative to 6-10% sucrose references; 6% sucrose reference rated 6.1
Protocol: Reference samples were prepared at 6, 7, 8, 9 and 10% sucrose (w/v). The test sample was prepared by addition of 50 mg of rubusoside to 1 L of 6% sucrose. The test sample was mixed with five sucrose control samples of various concentrations in the 6-10% sucrose range. Each of the six samples was then individually rated for sweetness intensity on a scale of 6-10 relative to the 6-10% sucrose references.
The Sweetness Intensity Rating ranged from 6 to 10, for each subject.

[9] = in water; cited from earlier work
[10] = estimation sweetness/off-taste threshold in water at room temperature (RT)

Levels After 2 Month of Storage [2]: 33 ppm
Compound: CC1(C(=O)O)CCCC2(C)C3CCC4(OC5OC(CO)C(O)C(OC6OC(CO)C(O)C(O)C6O)C5OC5OC(CO)C(O)C(O)C5O)CC3(CCC12)CC4(C)O [13-[(2-O-β-D-glucopyranosyl-3-O-β-D-glucopyranosyl-β-D-glucopyranosyl)oxy]-16-hydroxy kauran-18-oic acid]
Sensory result versus FRU 55,000 ppm [1]: N | Sensory result versus GLU 99,000 ppm [1]: N | Sensory result versus SUC 60,000 ppm [1]: N | Sweetness Threshold Level ([3]; in water at RT, value is max. level for solubility): 500 ppm | Sweetness Detection Threshold Level ([3]; value is max. level for solubility): 500 ppm

Compound: Rebaudioside C
Sweetness of the composition after enhancement [4]: about 7 % SE | Sensory result versus FRU 55,000 ppm [1]: N(S+) (No difference but slightly more sweet (0.5-0.75%)) | Sensory result versus GLU 99,000 ppm [1]: N(S+) (No difference but slightly more sweet (0.5-0.75%)) | Sensory result versus SUC 60,000 ppm [1]: +S (More sweetness intensity (~1.0% SE)) | Sweetness Detection Threshold Level ([3]; single assessor): 100 ppm

Levels After 2 Month of Storage [2]: 1 ppm
Compound: CC1=CC23CCC4C(C)(C(=O)O)CCCC4(C)C2CCC1(OC1OC(CO)C(O)C(OC2OC(CO)C(O)C(O)C2O)C1OC1OC(CO)C(O)C(O)C1O)C3 [13-[(2-O-β-D-glucopyranosyl-3-O-β-D-glucopyranosyl-β-D-glucopyranosyl)oxy] kaur-15-en-18-oic acid]
Sensory result versus FRU 55,000 ppm [1]: N | Sensory result versus GLU 99,000 ppm [1]: N | Sensory result versus SUC 60,000 ppm [1]: N | Sweetness Threshold Level [3, 10]: 35 ppm | Sweetness Detection Threshold Level ([3]; single assessor): 35 ppm

Levels After 2 Month of Storage [2]: 17 ppm
Compound: Rebaudioside B
Sensory result versus FRU 55,000 ppm [1]: N | Sensory result versus GLU 99,000 ppm [1]: N | Sensory result versus SUC 60,000 ppm [1]: N | Sweetness Threshold Level [3, 10]: 25 ppm | Sweetness Detection Threshold Level ([3]; single assessor): 25 ppm

Compound: C=C1C[C@@]23CC[C@H]4[C@@](C)(CCC[C@@]4(C)C(=O)O[C@@H]4O[C@H](CO)[C@@H](O)[C@H](O)[C@H]4O)[C@@H]2CC[C@]1(O[C@@H]1O[C@H](CO)[C@@H](O)[C@H](O)[C@H]1O)C3 [Rubusoside]
Enhancement of the 6% sucrose ([4]; rubusoside at 50 ppm, 6% sucrose in water): about 2 % SE | Sweetness recognition threshold [5]: 150 ppm | Times as sweet as the prototype without rubusoside [6]: 1.15 times | Sweetness equivalence ([6]; interpolation of the data): 9.2 % HFSS | Taste of the solution [7]: absence of taste | Sensory result versus FRU 55,000 ppm [1]: N(S+) (No difference but slightly more sweet (0.5-0.75%)) | Sensory result versus GLU 99,000 ppm [1]: N(S+) (No difference but slightly more sweet (0.5-0.75%)) | Sensory result versus SUC 60,000 ppm [1]: ++S (Much more sweetness intensity (~2.0% SE)) | Average sweetness intensity rating [8]: 7.9 | Sweetness Detection Threshold Level ([3]; single assessor): 50 ppm

Compound: C=C1CC23CCC4C(C)(C(=O)OC5OC(CO)C(O)C(O)C5O)CCCC4(C)C2CCC1(OC1OC(CO)C(O)C(OC2OC(CO)C(O)C(O)C2O)C1OC1OC(CO)C(O)C(OC2OC(CO)C(O)C(O)C2O)C1O)C3 [13-[(2-O-(3-O-α-D-glucopyranosyl)-β-D-glucopyranosyl-3-O-β-D-glucopyranosyl-β-D-glucopyranosyl)oxy] kaur-16-en-18-oic acid β-D-glucopyranosyl ester]
Sweetness of the composition after enhancement [4]: about 7 % SE | Sensory result versus FRU 55,000 ppm [1]: N(S+) (No difference but slightly more sweet (0.5-0.75%)) | Sensory result versus GLU 99,000 ppm [1]: N(S+) (No difference but slightly more sweet (0.5-0.75%)) | Sensory result versus SUC 60,000 ppm [1]: +S (More sweetness intensity (~1.0% SE)) | Sweetness Detection Threshold Level ([3]; single assessor): 25 ppm

Compound: OC[C@H]1O[C@@](CO)(O[C@H]2O[C@H](CO)[C@@H](O)[C@H](O)[C@H]2O)[C@@H](O)[C@@H]1O [sucrose]
Typical sweetness threshold level [9]: 0.5%
